Reference: US11506654B2, “Method, composition and kit for screening ALK or ROS-1 kinase inhibitor” (KOREA INSTITUTE OF SCIENCE AND TECHNOLOGY, priority 2018, dated 2022)

How the values were obtained:
Type in all cases: cell-based
HCC-78 cells = assay: WST-1 assay, cell growth inhibitory effect on lung carcinoma cell line (HCC-78); conditions: for inhibition of growth of HCC-78 cells (in words): 1 μM, 24, 48 and 72 hours, Student's t-test, p<0.05; for growth rate of HCC-78 cells (control group = 100%): 1 μM
Method: Specifically, HCC-78 lung cancer cells deposited under an accession number of KCTC13642BP on Sep. […] At this time, DMSO (dimethyl sulfoxide) was added to a control group in an amount to be 0.01% of the total medium, 1 μM doxorubicin was added to a positive control group, and then these control group and positive control group were cultured for 24, 48, and 72 hours, respectively. In addition, the experiment was conducted using an A549 cell line instead of the HCC cell line as a negative control group. The A549 cell line is a kRAS mutant cell line and is also a cell line which is not involved in the overexpression of ALK and ROS-1.
When each of the culture times passed after drug treatment, the WST-1 reagent was added to each medium in an amount to be 10% of the medium, the cells were cultured for 1 hour, and then the absorbance of cells was measured at 470 nm by using an ELISA instrument.

HCC-78 cell line = assay: Change in metabolites in HCC-78 cell line after ALK/ROS-1 kinase inhibitor treatment, UHPLC-MS; conditions: HCC-78, 1 μM, 24 hours, n=5
Method: HCC-78 lung cancer cells were cultured in a 5% carbon dioxide cell incubator at a temperature of 37° C. using a RPMI medium containing 10% fetal bovine serum and 1% antibiotic. […] At this time, as a control group, DMSO (dimethyl sulfoxide) was added to the cells in an amount to be 0.01% of the total medium, and the cells were cultured for 24 hours. Each cell was cultured in 5 cell dishes for each group so that the total number of experiments for each group was 5 (n=5).
After the culture time of 24 hours had elapsed, the medium was removed, and the cells were washed two times with PBS (phosphate buffered saline). The cells were then acquired from the culture dish using a cell scraper, put in a tube, and stored at −80° C.
(§1) Thereafter, a process in which the mixed solution was frozen using liquid nitrogen, dissolved in water at room temperature, and then sonicated for 30 seconds was repeated three times to destroy the cells. Thereafter, the resultant mixed solution was subjected to centrifugation at 14000 rpm for 10 minutes, and only the supernatant was separated from this. At this time, DNA quantitation was conducted in order to correct the cell volume of the intracellular fluid extract acquired according to the series of procedures. DNA quantitation was conducted by mixing the extract with water at a ratio of 1:3, putting 5 μL of the mixture in a cuvette, and measuring the quantity at 260 nm by using a spectrophotometer Nano-MD of SHINKO CO., LTD.
(§2) Specifically, 10 μL of the acquired sample was injected into the ultra-high-performance liquid chromatography system-mass spectrometer, and the temperature of the injector was maintained at 4° C. […]
(§3) Specifically, Excel raw data attained by conducting calibration and peak alignment using the compound discovery software of Thermo Fisher Scientific Inc. was extracted from the chromatogram. […] The extracted file was first divided by the internal standard substance and corrected using DNA quantitation of cells, and statistical processing was conducted using SIMCA software. […]

MCF-7 cell line = assay: Change in metabolites in MCF-7 cell line after crizotinib treatment, UHPLC-MS; conditions: MCF-7, 1 μM, 12 hours, n=5
Method: MCF-7 breast cancer cells were cultured in a 5% carbon dioxide cell incubator at a temperature of 37° C. using a DMEM medium containing 10% fetal bovine serum and 1% antibiotic. […] At this time, as a control group, DMSO was added to the cells in an amount to be 0.01% of the total medium, and the cells were cultured for 12 hours. Each cell was cultured in 5 cell dishes for each group so that the total number of experiments for each group was 5 (n=5).
After the culture time of 12 hours had elapsed, the medium was removed, and the cells were washed two times with PBS. The cells were then acquired from the culture dish using a cell scraper, put in a tube, and stored at −80° C.
as §1, §2, §3

[1] = tested on: MCF-7 breast cancer cells; assay: MTT assay, cell viability of breast cancer cell line (MCF-7); conditions: 1 μM, 72 hours
Method: Specifically, MCF-7 breast cancer cells deposited under an accession number of KCTC13643BP on Sep. […] At this time, DMSO (dimethyl sulfoxide) was added to a control group in an amount to be 0.01% of the total medium, 1 μM paclitaxel was added to a positive control group, and then these control group and positive control group were cultured for 72 hours.
When each of the culture times passed after drug treatment, the supernatant of each medium was removed, the MTT reagent was added to the fresh medium so as to be 0.5 mg/ml, the cells were cultured for 3 hours, then the supernatant was removed again, and then the medium was reconstituted with 100 μL of DMSO. Thereafter, the absorbance of cells was measured at 590 nm by using an ELISA instrument.

Cc1cc(Nc2ncc(Cl)c(Nc3ccccc3S(=O)(=O)C(C)C)n2)c(OC(C)C)cc1C1CCNCC1 [ceritinib]
inhibition of growth of HCC-78 cells (in words) (HCC-78 cells): significantly inhibited, particularly time dependently inhibited the growth of HCC-78 cells
growth rate of HCC-78 cells (control group = 100%) (HCC-78 cells; 24 hours after treatment): 73.73%
growth rate of HCC-78 cells (control group = 100%) (HCC-78 cells; 48 hours after treatment): 37.17%
growth rate of HCC-78 cells (control group = 100%) (HCC-78 cells; 72 hours after treatment): 17.99%
AMP increase as compared with control group (HCC-78 cell line): 188.21%
adenosine decrease as compared with control group (HCC-78 cell line): 95.31%
cAMP decrease as compared with control group (HCC-78 cell line): 66.78%

C[C@@H](Oc1cc(-c2cnn(C3CCNCC3)c2)cnc1N)c1c(Cl)ccc(F)c1Cl [crizotinib]
inhibition of growth of HCC-78 cells (in words) (HCC-78 cells): significantly inhibited, particularly time dependently inhibited the growth of HCC-78 cells
AMP increase (MCF-7 cell line): 82.91%
adenosine decrease (MCF-7 cell line): 32.07%
cAMP decrease (MCF-7 cell line): 28.6%

CC(C)(C)c1nc(-c2cccc(NS(=O)(=O)c3c(F)cccc3F)c2F)c(-c2ccnc(N)n2)s1 [dabrafenib]
inhibition of cell growth of MCF-7 cell line (in words) ([1]; Student's t-test, p value <0.05): 5 kinds of kinase inhibitors except dabrafenib significantly inhibited

COc1cccc2c1C(=O)c1c(O)c3c(c(O)c1C2=O)C[C@@](O)(C(=O)CO)C[C@@H]3O[C@H]1C[C@H](N)[C@H](O)[C@H](C)O1 [doxorubicin]
growth rate of HCC-78 cells (control group = 100%) (HCC-78 cells; 24 hours after treatment): 57.65%

CC(=O)O[C@H]1C(=O)[C@@]2(C)[C@H]([C@H](OC(=O)c3ccccc3)[C@]3(O)C[C@H](OC(=O)[C@H](O)[C@@H](NC(=O)c4ccccc4)c4ccccc4)C(C)=C1C3(C)C)[C@]1(OC(C)=O)CO[C@@H]1C[C@@H]2O [paclitaxel]
cell growth rate of MCF-7 as compared with control group [1]: 46.86%
